Test results: article PMC6429600, “Development of a dual-functional conjugate of antigenic peptide and Fc-III mimetics (DCAF) for targeted antibody blocking” (Chemical Science, 2019)
Each block holds one compound with its values, some of them ahead of it.

Key:
[1] = biological target: mAb35 (Ab4), commercial antibody that blocks the acetylcholine receptor; assay: SPR
[2] = biological target: Ab2 (monoclonal antibody raised against pep2); assay: SPR binding to immobilized Ab2; design: species or system mouse; conditions: BIAcore T200, Ab2 immobilized on CM5 chip, PBS with 0.005% surfactant P20, mean ± SD (n = 3), read-out: Kd of Ab2 binding (apparent Kd for DCAF)
Experimental: (§1) Surface plasmon resonance (SPR) experiments were performed using a BIAcore T200 instrument (GE healthcare) equipped with a CM5 sensor chip. Briefly, Ab1, Ab2 or Ab3 were directly immobilized onto a CM5 sensor chip using an EDC/NHS amine coupling kit. A blank channel was used as the negative control. For SPR measurements, all peptides were directly dissolved in running buffer (PBS with 0.005% surfactant P20). The analytes were injected and disassociated with immobilized IgG at a flow rate of 30 μl min^–1. After each binding and dissociation cycle, the surface of a sensor chip was regenerated using 10 mM glycine-HCl buffer (pH 2.0). The sensorgrams were corrected by subtraction of the signal from the negative control flow path and curve-fitted to calculate the reaction rate and constants using Evaluation 1.0 software.

Ab2 = assay: ELISA competition assay of Ab2 binding to GST-fused pep2; type: biochemical, mouse; conditions: sandwich ELISA, GST-fused pep2, Ab2 10 nM, OD450
Experimental: A standard sandwich ELISA assay was used for competition experiment. Briefly, 96-well microtiter plates were coated overnight with anti-GST antibody (10 nM) at 4 °C and blocked with 200 μL of 1% BSA in PBS at room temperature for 1 h. Then the artificial antigen (0.5 nM), pep2 coupled with the GST protein, was added to the wells and incubated for 2 h at RT. The plates were washed with PBS/0.05% Tween 20, and Ab2 (10 nM) or Ab2 (10 nM) plus other ligands, antigen, Fc-III or DCAF2 at series concentrations, were added and incubated for 2 h at RT. […] For a C1q binding assay, rat C1q ELISA kit was used following the protocol of the manufacturer. Briefly, incubated 25 ng mL^–1 C1q and series concentrations of Ab4 or DCAF4 with a pre-coated C1q capture antibody for 2 h at RT. Then HRP linked detection antibody was added for 1 h at RT and the TMB substrate was used to measure the concentration of C1q at OD450.

Ab1 (4G2 antibody) = assay: SPR binding to immobilized Ab1; design: species or system mouse; conditions: BIAcore T200, Ab1 immobilized on CM5 chip, PBS with 0.005% surfactant P20, 30 μl/min, mean ± SD (n = 3), read-out: Kd of Ab1 binding (apparent Kd for DCAF)
Experimental: as §1

[3] = biological target: Ab3 (monoclonal antibody raised against pep3); assay: SPR binding to immobilized Ab3; design: species or system mouse; conditions: BIAcore T200, Ab3 immobilized on CM5 chip, PBS with 0.005% surfactant P20, mean ± SD (n = 3), read-out: Kd of Ab3 binding (apparent Kd for DCAF)
Experimental: as §1

[4] = biological target: 4G2 antibody (Ab1), ADE-inducible mouse monoclonal IgG (mouse); assay: SPR; BIAcore T200; antibody (IgG) immobilised on a CM5 chip by EDC/NHS amine coupling; peptides as analytes in PBS with 0.005% surfactant P20, 30 ul/min; regeneration 10 mM glycine-HCl pH 2.0; apparent Kd for DCAF, bivalent fit gives Kd1 and Kd2
Ab4 (mAb35 antibody) = assay: SPR binding to immobilized Ab4; conditions: mean ± SD (n = 3), read-out: Kd of Ab4 binding (apparent Kd for DCAF)

Kd [1]: 0.014 µM
Compound: Fc-III-4C peptide

Compound: CC(C)C[C@@H]1NC(=O)[C@H](Cc2c[nH]cn2)NC(=O)[C@H](Cc2c[nH]c3ccccc23)NC(=O)[C@H](C)NC(=O)[C@@H](NC(=O)[C@@H](N)CC(=O)O)CSSC[C@@H](C(=O)N[C@H](C(=O)O)[C@@H](C)O)NC(=O)[C@H](Cc2c[nH]c3ccccc23)NC(=O)[C@H](C(C)C)NC(=O)[C@H](CC(C)C)NC(=O)[C@H](CCC(=O)O)NC(=O)CNC1=O [Fc-III]
Kd [2]: 0.169 ± 0.018 µM
inhibition of antigen–antibody (pep2–Ab2) binding (Ab2): did not inhibit
Kd (Ab1 (4G2 antibody)): 0.239 ± 0.002 µM
Kd [3]: 0.134 ± 0.006 µM

Compound: Fc-III peptide
Kd [4]: 0.239 µM

Compound: CC(C)C[C@@H]1NC(=O)[C@H](Cc2c[nH]cn2)NC(=O)[C@H](Cc2c[nH]c3ccccc23)NC(=O)[C@H](C)NC(=O)[C@@H]2CSSC[C@H](NC(=O)[C@H](Cc3c[nH]c4ccccc34)NC(=O)[C@H](C(C)C)NC(=O)[C@H](CC(C)C)NC(=O)[C@H](CCC(=O)O)NC(=O)CNC1=O)C(=O)N[C@@H]([C@@H](C)O)C(=O)N[C@H](C(=O)O)CSSC[C@H](N)C(=O)N[C@@H](CC(=O)O)C(=O)N2 [Fc-III-4C]
Kd (Ab4 (mAb35 antibody)): 0.01399 ± 3e-05 µM
